The results in this text go back to patent US12144886B2, “Perineural administration of resiniferatoxin for treatment of maladaptive pain” (Sorrento Therapeutics, Inc., priority 2018, dated 2024).

Bounds are passed on as bounds.

In this series the test system is declawed cats with chronic distal thoracic limb pain. Description: Adverse events in open-label multicenter trial of perineural RTX in declawed cats. The format is in vivo, cat. The conditions noted are these: for Animals with self-limiting reactions related to the treatment: during recovery from anesthesia. As for the experimental part: Cats suffering from severe bilateral chronic pain (more than 90 days) as a result of severe complications after onychectomy were enrolled in this study (an exploratory, open-label, multicenter clinical trial). Thirteen (13) cases were treated for initial pain and reduced quality of life (QoL). Then, bilateral perineural distal limb injections (ring block technique) were administered under general anesthesia (a combination of diphenhydramine, buprenorphine, dexmedetomidine, ketamine, and isoflurane). Following a published technique (Enomoto et al., 2016) for the nerve block of the manus of the cat, the total dose of RTX was equally distributed adjacent to the 1) superficial branch of the radial nerve, 2) dorsal branch of the ulnar nerve, 3) median nerve and superficial branch of the palmar branch of the ulnar nerve, and 4) deep branch of palmar branch of the ulnar nerve. A total of 2.5 ug (1.25 ug/1 mL per forelimb in Group 1, n=7) and 5 ug (2.5 ug/1 mL per forelimb in Group 2, n=6) of RTX was injected as a one-time treatment. Group 2 included the cat for which detailed results are provided in Example B above. Monitoring of QoL and pain for the following 28 days was accomplished using the Client-Specific Outcome Measures feline (CSOMf), the Feline Musculoskeletal Pain Index (FMPI), two post-injection physical examinations, and videography on days 3, 7, 14, and 28 post injections.

As for `C=C(C)[C@]12C[C@@H](C)[C@@]34O[C@](Cc5ccccc5)(O[C@@H]1[C@@H]3C=C(COC(=O)Cc1ccc(O)c(OC)c1)C[C@]1(O)C(=O)C(C)=C[C@@H]41)O2` [RTX, resiniferatoxin], under “2.5 ug and 5 ug total per cat”, the “Tolerability of perineural RTX at the described doses” value is on record as “well tolerated”. For the same molecule, the “Adverse event: hypersalivation” value by setting is: (Group 1 (2.5 ug total)) 71.4%; (Group 2 (5 ug total)) 50%. Besides, the “Adverse event: panting” value is reported as 57.1% (Group 1 (2.5 ug total)) and 83.3% (Group 2 (5 ug total)). The “Adverse event: vocalization” value (Group 1 (2.5 ug total)) was 57.1% and the “Adverse event: vocalization” value (Group 2 (5 ug total)) is 83.3%. Further, the “AEs presented and resolved the same day of administration” value is listed as 86.6% (Group 1 (2.5 ug total), 26/30); 95.4% (Group 2 (5 ug total), 21/22); “more than 85%” (both groups). For the same molecule, the “Animals with self-limiting reactions related to the treatment” value runs as follows: (Group 1 (2.5 ug total, 1.25 ug per forelimb, n=7)) 71.4%; (Group 2 (5 ug total, 2.5 ug per forelimb, n=6)) 100%. Further, where the note is “both groups”, the “Time to resolution of most common adverse events after treatment” value is not above 4 h.
